Data from ChEMBL document CHEMBL3826875, “2,8-Disubstituted-1,6-Naphthyridines and 4,6-Disubstituted-Isoquinolines with Potent, Selective Affinity for CDK8/19” (ACS Med Chem Lett, 2016).

Species on record: Mus musculus
Assay: not given
Conditions: SW-620, 5 mg/kg

Structure (SMILES) | inhibition
COC1CN(C(=O)c2ccc3c(N)ncc(-c4ccc(-c5cnn(C)c5)cc4)c3n2)C1 | tde

Tested on: not listed separately
Assay: in vitro
Conditions: human, Caco-2

Structure (SMILES) | Papp A→B at 2 h, 1 µM [×10⁻⁶ cm/s]
Cn1cc(-c2ccc(-c3cnc(N)c4ccc(C(=O)NC5CC5)cc34)cc2)cn1 | 32.5
Cn1cc(-c2ccc(-c3cnc(N)c4ccc(N5CCOC5=O)cc34)cc2)cn1 | 20.6
Cn1cc(-c2ccc(-c3cnc(N)c4ccc(C(=O)N5CC(C)(F)C5)cc34)cc2)cn1 | 25.8
COC1(C)CN(C(=O)c2ccc3c(N)ncc(-c4ccc(-c5cnn(C)c5)cc4)c3c2)C1 | 25.2
Cn1cc(-c2ccc(-c3cnc(N)c4ccc(C(=O)N5CC(F)(F)C5)cc34)cc2)cn1 | 39.7
Cn1cc(-c2ccc(-c3cnc(N)c4ccc(C(=O)N5CCC5)cc34)cc2)cn1 | 27.2

Second part, the compound after the results:

Papp A→B at 2 h, 1 µM [×10⁻⁶ cm/s] | Structure (SMILES)
0.96 | Cn1cc(-c2ccc(-c3cnc(N)c4ccc(C(=O)N5CCNCC5)nc34)cc2)cn1
34 | Cn1cc(-c2ccc(-c3cnc(N)c4ccc(C(=O)N5CCOCC5)nc34)cc2)cn1
27.6 | Cn1cc(-c2ccc(-c3cnc(N)c4ccc(C(=O)N5CC(C)(F)C5)nc34)cc2)cn1
23.9 | Cn1cc(-c2ccc(-c3cnc(N)c4ccc(C(=O)N5CC(F)(F)C5)nc34)cc2)cn1
40.1 | COC1(C)CN(C(=O)c2ccc3c(N)ncc(-c4ccc(-c5cnn(C)c5)cc4)c3n2)C1
42.6 | Cn1cc(-c2ccc(-c3cnc(N)c4ccc(C(=O)N5CCC5)nc34)cc2)cn1
28.6 | COC1CN(C(=O)c2ccc3c(N)ncc(-c4ccc(-c5cnn(C)c5)cc4)c3n2)C1
